This passage reports IC50 results from ChEMBL document CHEMBL4118160, “Heterocycles: Versatile control elements in bioactive macrocycles” (Bioorg Med Chem, 2018).

What is called IC50 is the concentration needed to halve the response being measured. A lower IC50 goes with greater potency.

This experiment concerns the target Integrin alpha-V/beta-3 (Homo sapiens, UniProt P05106+P06756). As to the kind of experiment: Inhibition of vitronectin binding to alphaVbeta3 integrin (unknown origin) measured after 3 hrs. The class given is protein-complex assay.

Integrin alpha-V/beta-3, sequence (P05106 27-788 limits assumed): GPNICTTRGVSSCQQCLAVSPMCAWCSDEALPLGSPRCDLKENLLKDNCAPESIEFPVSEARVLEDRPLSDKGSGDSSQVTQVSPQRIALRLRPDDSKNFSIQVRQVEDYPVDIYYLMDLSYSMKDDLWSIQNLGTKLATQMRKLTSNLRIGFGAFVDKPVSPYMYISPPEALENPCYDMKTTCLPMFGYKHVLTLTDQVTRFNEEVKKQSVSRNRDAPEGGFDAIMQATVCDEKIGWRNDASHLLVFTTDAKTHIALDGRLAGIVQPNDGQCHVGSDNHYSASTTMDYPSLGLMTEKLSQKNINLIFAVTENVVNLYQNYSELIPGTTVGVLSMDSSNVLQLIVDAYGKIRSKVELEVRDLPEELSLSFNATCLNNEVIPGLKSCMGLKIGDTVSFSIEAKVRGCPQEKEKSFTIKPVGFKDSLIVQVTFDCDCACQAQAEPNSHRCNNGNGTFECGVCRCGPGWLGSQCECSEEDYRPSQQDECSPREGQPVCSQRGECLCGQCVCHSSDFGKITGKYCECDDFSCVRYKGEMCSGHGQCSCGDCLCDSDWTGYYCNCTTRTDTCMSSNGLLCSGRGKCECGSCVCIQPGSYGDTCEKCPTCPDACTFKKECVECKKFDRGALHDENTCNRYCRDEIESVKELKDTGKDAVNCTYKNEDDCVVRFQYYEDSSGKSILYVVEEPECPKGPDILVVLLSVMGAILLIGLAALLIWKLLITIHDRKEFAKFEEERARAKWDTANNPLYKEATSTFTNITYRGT
Integrin alpha-V/beta-3, sequence (P06756 31-889 limits assumed): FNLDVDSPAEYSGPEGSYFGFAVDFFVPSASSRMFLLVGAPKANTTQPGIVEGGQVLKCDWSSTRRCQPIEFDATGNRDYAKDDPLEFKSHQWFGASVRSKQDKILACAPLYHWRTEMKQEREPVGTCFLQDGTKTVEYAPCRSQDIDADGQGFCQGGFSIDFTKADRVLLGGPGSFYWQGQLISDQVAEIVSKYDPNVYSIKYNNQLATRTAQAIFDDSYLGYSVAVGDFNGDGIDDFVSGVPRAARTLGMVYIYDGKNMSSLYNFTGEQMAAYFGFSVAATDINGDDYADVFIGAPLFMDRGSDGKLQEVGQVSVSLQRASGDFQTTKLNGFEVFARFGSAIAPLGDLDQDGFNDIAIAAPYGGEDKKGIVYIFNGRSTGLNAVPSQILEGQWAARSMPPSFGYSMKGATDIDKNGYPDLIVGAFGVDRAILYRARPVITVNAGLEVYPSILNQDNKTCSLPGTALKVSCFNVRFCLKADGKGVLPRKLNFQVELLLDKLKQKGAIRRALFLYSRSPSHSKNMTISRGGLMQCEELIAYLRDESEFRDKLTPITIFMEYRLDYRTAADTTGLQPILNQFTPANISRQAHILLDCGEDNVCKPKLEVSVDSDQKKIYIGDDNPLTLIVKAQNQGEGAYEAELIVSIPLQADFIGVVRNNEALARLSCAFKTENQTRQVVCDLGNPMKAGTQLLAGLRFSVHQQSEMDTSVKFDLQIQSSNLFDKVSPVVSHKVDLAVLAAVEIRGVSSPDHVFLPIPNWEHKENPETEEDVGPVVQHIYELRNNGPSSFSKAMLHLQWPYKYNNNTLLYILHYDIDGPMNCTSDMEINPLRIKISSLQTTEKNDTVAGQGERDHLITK
Integrin alpha-V/beta-3, sequence (P06756 891-1048 limits assumed): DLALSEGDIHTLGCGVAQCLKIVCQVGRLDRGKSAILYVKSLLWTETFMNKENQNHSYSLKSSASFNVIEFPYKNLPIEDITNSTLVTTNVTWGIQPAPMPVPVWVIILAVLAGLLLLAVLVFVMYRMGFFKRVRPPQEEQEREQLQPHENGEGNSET

For `N=C(N)NCCC[C@H]1NC(=O)CNC(=O)[C@@H](CC(=O)O)CN[C@@H]2O[C@H](C1=O)[C@@H](OCc1ccccc1)[C@H](OCc1ccccc1)[C@H]2OCc1ccccc1`, the IC50 was at most 150 nM. Molecule `N=C(N)NCCC[C@H]1NC(=O)CNC(=O)[C@@H](CC(=O)O)CN[C@H]2O[C@H](C1=O)[C@@H](OCc1ccccc1)[C@H](OCc1ccccc1)[C@H]2OCc1ccccc1` yielded a 50% inhibitory concentration (IC50) of at most 150 nM.
